# Measurements taken from patent publication US20210246157A1, “CAMPTOTHECIN DERIVATIVES AND PREPARATION METHODS AND APPLICATIONS THEREOF” (priority 2018, published 2021).
# Key:
# [1] = In vivo antitumor activity study, mouse weight (Example 19); design: species or system mice; conditions: 12.30 mg/kg i.v. once every three days
# tumor = test: Multi-dose in vivo antitumor activity, tumor volume (Example 20); design: species or system mice; conditions: for Mouse Tumor Volume: caudal vein once every 2 days
# Method: (§1) The drugs are administered through the caudal veins of mice once every 2 days for a total of 7 times.
# Tumor volume is measured every three days from day 0. The maximum diameter (a) of the tumor is measured first, and then the longest radial line (b) perpendicular to the maximum diameter is measured, using mm as unit. Tumor volume is calculated according to the following formula: […]
# [2] = Multi-dose in vivo antitumor activity study, mouse weight (Example 20); design: species or system mice; conditions: caudal vein once every 2 days
# Method: as §1
# At the end of the treatment cycle, the orbital venous blood of the mice is collected for later blood routine test, the mice are killed by cervical dislocation method, and tumors are removed immediately and photographed. From day 0, the mice in each group are weighed every three days, and the weights are recorded. The weight average value of each group is calculated, and mouse weight variation curve is drawn according to statistical data. At the end of the treatment cycle, tumors are removed from anesthetized mice immediately and weighted, and the tumor weight of each group is recorded. The tumor inhibition rate (%) is calculated according to the following formula: […]
# SW-480 = test: Cytotoxicity test (MTT, 72 h); conditions: Homo sapiens, SW480, 72 h, read-out: 50% Inhibiting Concentration value (IC50)
# Method: (§2) Cells at logarithmic growth period are inoculated in a 96-well plate overnight, then drugs with a certain gradient concentrations are added, and incubation is carried out in a cell culture chamber (5% CO2, 37° C.) for 72 h.
# HT-29 = test: Cytotoxicity test (MTT, 72 h); conditions: Homo sapiens, HT-29, 72 h, read-out: 50% Inhibiting Concentration value (IC50)
# Method: as §2
# HCT-116 = test: Cytotoxicity test (MTT, 72 h); conditions: Homo sapiens, HCT-116, 72 h, read-out: 50% Inhibiting Concentration value (IC50)
# Method: (§3) In order to investigate the antitumor activities of the compounds, a variety of tumor cell lines for test are selected. Cells at logarithmic growth period are inoculated in a 96-well plate overnight, then drugs with a certain gradient concentrations are added, and incubation is carried out in a cell culture chamber (5% CO2, 37° C.) for 72 h.
# A549 = test: Cytotoxicity test (MTT, 72 h); conditions: Homo sapiens, A549, 72 h, read-out: 50% Inhibiting Concentration value (IC50)
# Method: as §3
# HepG2 = test: Cytotoxicity test (MTT, 72 h); conditions: Homo sapiens, HepG2, 72 h, read-out: 50% Inhibiting Concentration value (IC50)
# Method: as §3
# BGC-823 = test: Cytotoxicity test (MTT, 72 h); conditions: Homo sapiens, BGC-823, 72 h, read-out: 50% Inhibiting Concentration value (IC50)
# Method: as §3
# K562 = test: Cytotoxicity test (MTT, 72 h); conditions: Homo sapiens, K562, 72 h, read-out: 50% Inhibiting Concentration value (IC50)
# Method: as §3
# PC3 = test: Cytotoxicity test (MTT, 72 h); conditions: Homo sapiens, PC-3, 72 h, read-out: 50% Inhibiting Concentration value (IC50)
# Method: as §3
# 143B = test: Cytotoxicity test (MTT, 72 h); conditions: Homo sapiens, read-out: 50% Inhibiting Concentration value (IC50)
# Method: as §3
# MDA-MB-231 = test: Cytotoxicity test (MTT, 72 h); conditions: Homo sapiens, MDA-MB-231, 72 h, read-out: 50% Inhibiting Concentration value (IC50)
# Method: as §3
# Hela = test: Cytotoxicity test (MTT, 72 h); conditions: Homo sapiens, read-out: 50% Inhibiting Concentration value (IC50)
# Method: as §3
# TPC-1 = test: Cytotoxicity test (MTT, 72 h); conditions: Homo sapiens, TPC1, 72 h, read-out: 50% Inhibiting Concentration value (IC50)
# Method: as §2
# SKOV-3 = test: Cytotoxicity test (MTT, 72 h); conditions: Homo sapiens, SK-OV-3, 72 h, read-out: 50% Inhibiting Concentration value (IC50)
# Method: as §2
# PANC-1 = test: Cytotoxicity test (MTT, 72 h); conditions: Homo sapiens, PANC-1, 72 h, read-out: 50% Inhibiting Concentration value (IC50)
# Method: as §2
# [3] = day 0, high-dose group (H) 12.30 mg/kg
# [4] = day 0, low-dose group (L) 3.075 mg/kg
# [5] = day 0, medium-dose group (M) 6.15 mg/kg
# [6] = day 3, high-dose group (H) 12.30 mg/kg
# [7] = day 3, low-dose group (L) 3.075 mg/kg
# [8] = day 3, medium-dose group (M) 6.15 mg/kg
# [9] = day 6, high-dose group (H) 12.30 mg/kg
# [10] = day 6, low-dose group (L) 3.075 mg/kg
# [11] = day 6, medium-dose group (M) 6.15 mg/kg
# [12] = day 9, high-dose group (H) 12.30 mg/kg
# [13] = day 9, low-dose group (L) 3.075 mg/kg
# [14] = day 9, medium-dose group (M) 6.15 mg/kg
# [15] = day 12, high-dose group (H) 12.30 mg/kg
# [16] = day 12, low-dose group (L) 3.075 mg/kg
# [17] = day 12, medium-dose group (M) 6.15 mg/kg
# [18] = day 15, high-dose group (H) 12.30 mg/kg
# [19] = day 15, low-dose group (L) 3.075 mg/kg
# [20] = day 15, medium-dose group (M) 6.15 mg/kg
# [21] = day 18, high-dose group (H) 12.30 mg/kg
# [22] = day 18, low-dose group (L) 3.075 mg/kg
# [23] = day 18, medium-dose group (M) 6.15 mg/kg
# [24] = day 21, high-dose group (H) 12.30 mg/kg
# [25] = day 21, low-dose group (L) 3.075 mg/kg
# [26] = day 21, medium-dose group (M) 6.15 mg/kg
smiles,measurement,setting,value
CCc1c2c(nc3ccc(OC(=O)NCCOCc4cn(CCO[C@H]5O[C@@H](CO)[C@H](O)[C@@H](O)[C@@H]5O)nn4)cc13)-c1cc3c(c(=O)n1C2)COC(=O)[C@]3(O)CC [Compound 67],Mouse Weight,[1]; day 0,23.97 g
same,Mouse Weight,[1]; day 3,23.97 g
same,Mouse Weight,[1]; day 6,23.57 g
same,Mouse Weight,[1]; day 9,23.94 g
same,Mouse Weight,[1]; day 12,23.58 g
same,Mouse Weight,[1]; day 15,24.45 g
same,Mouse Weight,[1]; day 18,24.86 g
same,Mouse Weight,[1]; day 21,25.33 g
same,Mouse Tumor Volume,tumor; [3],121.62 mm^3
same,Mouse Tumor Volume,tumor; [4],125.58 mm^3
same,Mouse Tumor Volume,tumor; [5],161.01 mm^3
same,Mouse Tumor Volume,tumor; [6],91.15 mm^3
same,Mouse Tumor Volume,tumor; [7],194.43 mm^3
same,Mouse Tumor Volume,tumor; [8],168.50 mm^3
same,Mouse Tumor Volume,tumor; [9],96.67 mm^3
same,Mouse Tumor Volume,tumor; [10],197.42 mm^3
same,Mouse Tumor Volume,tumor; [11],208.68 mm^3
same,Mouse Tumor Volume,tumor; [12],103.36 mm^3
same,Mouse Tumor Volume,tumor; [13],278.06 mm^3
same,Mouse Tumor Volume,tumor; [14],220.90 mm^3
same,Mouse Tumor Volume,tumor; [15],110.74 mm^3
same,Mouse Tumor Volume,tumor; [16],420.38 mm^3
same,Mouse Tumor Volume,tumor; [17],295.90 mm^3
same,Mouse Tumor Volume,tumor; [18],133.88 mm^3
same,Mouse Tumor Volume,tumor; [19],498.90 mm^3
same,Mouse Tumor Volume,tumor; [20],378.20 mm^3
same,Mouse Tumor Volume,tumor; [21],116.64 mm^3
same,Mouse Tumor Volume,tumor; [22],587.60 mm^3
same,Mouse Tumor Volume,tumor; [23],404.02 mm^3
same,Mouse Tumor Volume,tumor; [24],103.48 mm^3
same,Mouse Tumor Volume,tumor; [25],624.45 mm^3
same,Mouse Tumor Volume,tumor; [26],394.44 mm^3
same,tumor inhibition effects of the high-dose groups compared with CPT-11 (in words),"tumor; high-dose groups, same dosage (10 mg/kg), p<0.001",better than that of positive control group CPT-11
same,dose dependence of tumor inhibition (in words),"tumor; low, medium and high dose",dose-dependent
same,Mouse Weight,[2]; [3],17.04 g
same,Mouse Weight,[2]; [4],16.18 g
same,Mouse Weight,[2]; [5],18.28 g
same,Mouse Weight,[2]; [6],16.15 g
same,Mouse Weight,[2]; [7],16.28 g
same,Mouse Weight,[2]; [8],17.29 g
same,Mouse Weight,[2]; [9],16.88 g
same,Mouse Weight,[2]; [10],15.76 g
same,Mouse Weight,[2]; [11],16.82 g
same,Mouse Weight,[2]; [12],16.57 g
same,Mouse Weight,[2]; [13],16.28 g
same,Mouse Weight,[2]; [14],17.18 g
same,Mouse Weight,[2]; [15],16.06 g
same,Mouse Weight,[2]; [16],16.03 g
same,Mouse Weight,[2]; [17],16.74 g
same,Mouse Weight,[2]; [18],16.32 g
same,Mouse Weight,[2]; [19],16.04 g
same,Mouse Weight,[2]; [20],15.82 g
same,Mouse Weight,[2]; [21],17.36 g
same,Mouse Weight,[2]; [22],16.17 g
same,Mouse Weight,[2]; [23],16.27 g
same,Mouse Weight,[2]; [24],16.78 g
same,Mouse Weight,[2]; [25],16.48 g
same,Mouse Weight,[2]; [26],16.84 g
same,IC50,SW-480,0.251 µM
same,IC50,HT-29,5.19 µM
same,IC50,HCT-116,0.235 µM
same,IC50,A549,2.42 µM
same,IC50,HepG2,1.05 µM
same,IC50,BGC-823,0.209 µM
same,IC50,K562,0.196 µM
same,IC50,PC3,2.02 µM
same,IC50,143B,5.61 µM
same,IC50,MDA-MB-231,0.876 µM
same,IC50,Hela,2.91 µM
same,IC50,TPC-1,8.08 µM
same,IC50,SKOV-3,1.26 µM
same,IC50,PANC-1,2.91 µM
